From the supplement of paper PMC10307832

How the values were obtained:
Experiment in all cases: relative viability (nuclei count vs DMSO), 5 days (fraction); higher = more cells survive
Bortezomib + Crizotinib = compound: CC(C)C[C@H](NC(=O)[C@H](Cc1ccccc1)NC(=O)c1cnccn1)B(O)O [Bortezomib] + C[C@@H](Oc1cc(-c2cnn(C3CCNCC3)c2)cnc1N)c1c(Cl)ccc(F)c1Cl [Crizotinib] (partner 1 µM)
In short: (§1)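 Dosing by pin tool came one day after lung cancer cell lines were seeded in 1536-well plates, using either one drug or a fixed anchor-drug dose plus five library-drug doses (not always all listed) in √10 steps. After 5 days, nuclei were counted on 4× images. Relative viability is treated-well nuclei count divided by vehicle-well nuclei count, and values are medians of duplicate plates.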

Bortezomib + Lapatinib = compound: CC(C)C[C@H](NC(=O)[C@H](Cc1ccccc1)NC(=O)c1cnccn1)B(O)O [Bortezomib] + CS(=O)(=O)CCNCc1ccc(-c2ccc3ncnc(Nc4ccc(OCc5cccc(F)c5)c(Cl)c4)c3c2)o1 [Lapatinib] (partner 2 µM)
In short: as §1

[1] = compound: CC1=CC(=NN1)NC2=CC(=NC(=N2)/C=C/C3=CC=CC=C3)N4CCN(CC4)C + Cc1nc(Nc2ncc(C(=O)Nc3c(C)cccc3Cl)s2)cc(N2CCN(CCO)CC2)n1 [Dasatinib] (partner 0.075 µM)
In short: as §1

[2] = compound: CC1=CC(=NN1)NC2=CC(=NC(=N2)/C=C/C3=CC=CC=C3)N4CCN(CC4)C + O=C(c1cc(Cc2n[nH]c(=O)c3ccccc23)ccc1F)N1CCN(C(=O)C2CC2)CC1 [Olaparib] (partner 8 µM)
In short: as §1

Cell Line | relative viability (Bortezomib + Crizotinib; first compound 0.0002 µM) | relative viability (Bortezomib + Crizotinib; first compound 0.000632 µM) | relative viability (Bortezomib + Crizotinib; first compound 0.002 µM) | relative viability (Bortezomib + Crizotinib; first compound 0.006325 µM) | relative viability (Bortezomib + Crizotinib; first compound 0.02 µM) | relative viability (Bortezomib + Lapatinib; first compound 0.0002 µM) | relative viability (Bortezomib + Lapatinib; first compound 0.000632 µM) | relative viability (Bortezomib + Lapatinib; first compound 0.002 µM) | relative viability (Bortezomib + Lapatinib; first compound 0.006325 µM) | relative viability (Bortezomib + Lapatinib; first compound 0.02 µM) | relative viability ([1]; first compound 0.08 µM) | relative viability ([1]; first compound 0.253 µM) | relative viability ([1]; first compound 0.8 µM) | relative viability ([1]; first compound 2.53 µM) | relative viability ([1]; first compound 8 µM) | relative viability ([2]; first compound 0.08 µM) | relative viability ([2]; first compound 0.253 µM) | relative viability ([2]; first compound 0.8 µM) | relative viability ([2]; first compound 2.53 µM) | relative viability ([2]; first compound 8 µM)
201T | 0.999 | 1.07 | 1.02 | 1.02 | 0.32 | 1.01 | 0.99 | 1.06 | 1.05 | 0.512 | 0.586 | 0.546 | 0.541 | 0.435 | 0.208 | 0.838 | 0.837 | 0.828 | 0.819 | 0.487
A549 | 0.767 | 0.631 | 0.789 | 0.0392 | 0.0432 | 0.981 | 0.872 | 0.957 | 0.0567 | 0.0601 |  |  |  |  |  | 0.292 | 0.529 | 0.287 | 0.156 | 0.0245
A-427 | 0.867 | 0.859 | 0.866 | 0.521 | 0.0943 | 1.05 | 0.975 | 1.11 | 1.02 | 0.19 | 0.789 | 0.579 | 0.631 | 0.156 | 0.0981 | 0.815 | 0.774 | 0.913 | 0.468 | 0.158
ABC-1 | 1.1 | 0.693 | 0.22 | 0.178 | 0.195 | 0.941 | 1.06 | 0.605 | 0.606 | 0.495 | 0.496 | 0.692 | 0.522 | 0.207 | 0.145 | 0.904 | 0.946 | 1.01 | 0.647 | 0.324
Calu-6 | 0.712 | 0.777 | 0.81 | 0.105 | 0.0708 | 0.961 | 1.03 | 1.02 | 0.138 | 0.109 |  |  |  |  |  | 0.577 | 0.558 | 0.469 | 0.289 | 0.0899
ChaGo-K-1 |  |  | 1.11 | 0.304 | 0.236 |  |  |  |  |  | 0.58 | 0.598 | 0.476 | 0.151 | 0.132 | 0.371 | 0.42 | 0.38 | 0.234 | 0.148
EBC-1 | 0.172 | 0.172 | 0.162 | 0.106 | 0.0978 | 0.221 | 0.228 | 0.204 | 0.164 | 0.151 |  |  |  |  |  | 0.631 | 0.753 | 0.7 | 0.46 | 0.114
HCC-44 | 0.816 | 0.842 | 0.839 | 0.116 | 0.153 | 0.977 | 1.02 | 0.953 | 0.658 | 0.118 |  |  |  |  |  | 0.974 | 1.01 | 0.956 | 0.965 | 0.759
IA-LM | 0.996 | 0.699 | 0.559 | 0.0382 | 0.0338 | 0.828 | 0.851 | 0.432 | 0.0336 | 0.0551 |  |  |  |  |  | 0.839 | 0.899 | 0.981 | 1.02 | 0.174
LCLC-103H | 1.04 | 1.04 | 0.997 | 0.756 | 0.207 |  |  |  |  |  | 0.481 | 0.483 | 0.492 | 0.459 | 0.237 | 0.775 | 0.846 | 0.716 | 0.668 | 0.481
NCI-H441 | 0.584 | 0.716 | 0.29 | 0.135 | 0.129 |  |  |  |  |  | 0.526 | 0.443 | 0.61 | 0.159 | 0.117 | 0.569 | 0.55 | 0.503 | 0.401 | 0.116
NCI-H522 |  |  |  |  |  |  |  |  |  |  | 0.94 | 0.795 | 0.662 | 0.482 | 0.388 | 0.64 | 0.647 | 0.61 | 0.472 | 0.319
NCI-H1299 | 0.943 | 0.965 | 0.969 | 0.39 | 0.152 | 0.959 | 0.93 | 0.933 | 0.463 | 0.16 |  |  |  |  |  | 0.961 | 0.924 | 0.975 | 0.616 | 0.167
NCI-H1395 |  |  |  |  |  | 0.998 | 0.79 | 0.449 | 0.499 | 0.28 | 0.424 | 0.409 | 0.4 | 0.344 | 0.28 | 0.472 | 0.462 | 0.445 | 0.355 | 0.278
NCI-H1563 | 0.894 | 0.902 | 0.732 | 0.522 | 0.443 | 0.809 | 0.869 | 0.684 | 0.506 | 0.481 | 0.462 | 0.463 | 0.497 | 0.432 | 0.288 |  |  |  |  | 
NCI-H1623 |  |  |  |  |  |  |  |  |  |  | 0.469 | 0.559 | 0.614 | 0.494 | 0.543 |  |  |  |  | 
NCI-H1648 |  |  |  |  |  |  |  |  |  |  |  |  |  |  |  | 0.979 | 0.797 | 0.813 | 0.747 | 0.361
NCI-H1703 | 0.561 | 0.495 | 0.133 | 0.101 | 0.081 | 1.23 | 0.947 | 0.184 | 0.135 | 0.145 |  |  |  |  |  | 0.355 | 0.392 | 0.167 | 0.168 | 0.0731
NCI-H1793 |  |  |  |  |  | 0.683 | 0.624 | 0.868 | 0.466 | 0.154 | 0.379 | 0.446 | 0.365 | 0.138 | 0.0977 | 0.845 | 1.06 | 0.667 | 0.138 | 0.0993
NCI-H2342 |  |  |  |  |  |  |  |  |  |  | 0.314 | 0.298 | 0.322 | 0.249 | 0.218 | 0.411 | 0.419 | 0.417 | 0.412 | 0.268
SW 900 |  |  |  |  |  |  |  |  |  |  | 0.644 | 0.585 | 0.413 | 0.418 | 0.0713 | 0.863 | 0.89 | 0.805 | 0.298 | 0.107
